Source: patent US11103514B2, “Treatment of muscular dystrophy” (Corcept Therapeutics, Inc., priority 2010, dated 2021)

Tests used:
[1] = test system: bitransgenic EpA960/MCM mice; experiment: Tamoxifen-inducible heart-specific DM1 mouse model, mortality; format: in vivo; details: intraperitoneal mifepristone in saline, beginning 2 hours after first tamoxifen injection; 1-100 mg per kg body weight; mock-treated mice 80% died within 3 weeks
Description: In this model, EpA960 RNA is induced in the bitransgenic EpA960/MCM mice (F1 progeny) by 5 consecutive daily intraperitoneal injections of tamoxifen (20 mg/kg/d) leading to high mortality, conduction abnormalities, and systolic and diastolic dysfunction. […] Control or mock-treated mice are injected with saline solution alone. Each of the control and test groups typically includes 10-20 mice.
Typically, eighty percent of the mock-treated mice died within 3 weeks of RNA induction due to arrhythmias and/or contractile dysfunction. […] Description of experimental procedures can be found in, e.g., Wang et al., J Clin Invest. 2009; 119(12):3797-806.

[2] = percent of the daily dose; in one study (Kawai); cited from earlier work

## CC#C[C@]1(O)CC[C@H]2[C@@H]3CCC4=CC(=O)CCC4=C3[C@@H](c3ccc(N(C)C)cc3)C[C@@]21C [Mifepristone, 17-β-hydroxy-11-β-(4-dimethyl-aminophenyl)-17-α-(1-propynyl)-estra-4,9-dien-3-one]
[1]
  reduction of the mortality of bitransgenic mice: at least 10%
[2]
  daily dose excreted in the urine: less than 0.5%
